Measured values: ChEMBL document CHEMBL4334501, “A drug repurposing screening reveals a novel epigenetic activity of hydroxychloroquine” (Eur J Med Chem, 2019)
The source made the active and inactive calls. The rule behind the calls is not given here.

Key:
[1] = molecular target: Polycomb protein EED (Homo sapiens) (UniProt O75530); assay: Inhibition of HA-tagged human EED subunit of PRC2 complex expressed in human MM1S cells assessed as reduction in transfected EED cDNA vector-induced H3K27me3 overexpression at 10 uM after 24 hrs by Western blot analysis; format: cell-based
[2] = molecular target: Polycomb protein EED (Homo sapiens) (UniProt O75530); assay: Inhibition of EED subunit of PRC2 complex in human MM1S cells assessed as reduction in H3K27me3 expression after 24 hrs by Western blot analysis; format: cell-based

Chain of Polycomb protein EED (Homo sapiens) (O75530 2-441 limits assumed): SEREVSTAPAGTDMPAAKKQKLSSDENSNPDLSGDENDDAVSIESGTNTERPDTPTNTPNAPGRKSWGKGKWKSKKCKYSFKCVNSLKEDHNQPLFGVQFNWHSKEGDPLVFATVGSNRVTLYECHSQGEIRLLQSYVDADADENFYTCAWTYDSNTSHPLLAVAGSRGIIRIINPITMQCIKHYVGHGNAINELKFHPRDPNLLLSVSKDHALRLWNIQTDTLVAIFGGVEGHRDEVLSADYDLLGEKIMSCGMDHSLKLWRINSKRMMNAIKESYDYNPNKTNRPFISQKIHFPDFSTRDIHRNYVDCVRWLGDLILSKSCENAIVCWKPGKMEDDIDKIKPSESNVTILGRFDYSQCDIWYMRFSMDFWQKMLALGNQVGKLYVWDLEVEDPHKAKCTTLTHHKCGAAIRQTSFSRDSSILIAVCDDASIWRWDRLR

Q: Which inhibition [1] does the source give for `CCN(CCO)CCCC(C)Nc1ccnc2cc(Cl)ccc12` (configuration not stated) here?
A: Active

Q: What about the inhibition [2] of the same compound?
A: Dose-dependent effect
